The record followed here is patent publication US20120316342A1, “THERAPEUTIC AGENT FOR HEPATITIS C” (priority 2010, published 2012).

Each structure is given as a SMILES string. pEC50: −log10 of the molar value. Entries after “also recorded” stand apart in the source; their conditions may differ. A value given as a limit tells only on which side of the number the result lay.

Data set [1] deals with Subgenomic HCV RNA replicon cells (LucNeo#2). Briefly: Cytotoxicity (cell survival rate) by tetrazolium staining in luciferase replicon cells. The data set is classed as cell-based. Particulars: for CC50: LucNeo#2 subgenomic replicon cells. As to the method: A tetrazolium staining solution (10 μl, Seikagaku Corporation, Tokyo) was added to each well in order to examine cytotoxicity (a cell survival rate). After the cells were incubated for 1 hour, the absorbance at the characteristic absorption wavelength (450 nm) was measured with the use of a microplate reader.
(§1) Based on the luciferase assay results, the HCV genomic RNA level was measured, and a percentage (%) relative to the level of RNA of a control group to which the test compound was not administered was determined. Based on the results of tetrazolium staining, cell survival rates (%) of the group to which the test compound had been administered and of a control group were determined. The dose-response relationship of the test compound was analyzed based on the results of quantitative luciferase assays to determine EC50(μM), and the dose-response relationship of the test compound was analyzed based on the results of tetrazolium staining to determine CC50.
On the technique in general: In antiviral work, replicon cells carry a viral genome segment that copies itself.

Data set [2] concerns Subgenomic HCV RNA replicon cells (LucNeo#2) having a luciferase gene. Nature of the data set: Anti-HCV activity using replicon cells (luciferase assay). The data set is classed as cell-based. The settings on record: luciferase assay; for pEC50: LucNeo#2 subgenomic replicon cells, 3 days, read-out: EC50; for anti-HCV activity (in words): Table 2, FIGS. 13 to 15. As to the method: Subgenomic HCV RNA replicon cells (LucNeo#2, Goto et al., Biochem. Biophys. Res. Commun., 2006, vol. 343, pp. 879-884) having a luciferase gene were suspended in a Dulbecco's modified Eagle medium (DMEM) containing 10% FBS and 1 mg/ml G418 (Sigma). The cells were incubated for 24 hours and then cultured in G418-free fresh media each containing test compounds at various concentrations for 3 days. In order to perform luciferase assays, the cells were washed with PBS and treated with a lysate for 10 minutes with intermittent agitation. A cell lysate (25 μl) was transferred to a white microtiter plate. Luciferase assay reagents (100 μl, Promega, Tokyo) were added to each well and the luciferase activity was measured with a luminometer.
as §1

Regarding `CCCCn1c(=O)c2cc(OC)ccc2c2cc(C(OCc3ccccc3)(C(F)(F)F)C(F)(F)F)c3c(c21)OCO3` [HA-758, 11-(2′-benzyloxy-1′,1′,1′,3′,3′,3′-hexafluoropropan-2′-yl)-4-butyl-7-methoxy-[1,3]-dioxolo[4,5-c]phenanthridin-5(4H)-one], the CC50 in data set [1] was over 100 µM. In addition, in data set [2], the pEC50 is 5.77 and the “anti-HCV activity (in words)” value was “high degree of anti-HCV activity at non-cytotoxic concentrations; also recorded: high degree of anti-HCV activity”.

In data set [1], `CCCCn1c(=O)c2cc(OC)ccc2c2cc(C(O)(C(F)(F)F)C(F)(F)F)c3c(c21)OCO3` [HA-719, 4-butyl-11-(1′,1′,1′,3′,3′,3′-hexafluoro-2′-hydroxypropan-2′-yl)-7-methoxy-[1,3]dioxolo[4,5-c]phenanthridin-5(4H)-one] registered a CC50 of 6.4 µM. In data set [1] (Table 2), the “cytotoxicity (in words)” value is “high degree of cytotoxicity”. Further, in data set [2], the pEC50 is 7.30 and the “anti-HCV activity (in words)” value is “very high; also recorded: high degree of anti-HCV activity”.

On to `CCCCn1c(=O)c2cc(OC)c(OC)c(OC)c2c2cc(C(O)(C(F)(F)F)C(F)(F)F)ccc21` [KZ28, 5-butyl-2-(1′,1′,1′,3′,3′,3′-hexafluoro-2′-hydroxypropan-2′-yl)-8,9,10-trimethoxy-phenanthridin-6(5H)-one], for which it took 9.4 µM to reach half-maximal cytotoxicity in data set [1] (CC50). Also, in data set [2], the pEC50 was 5.08.

In data set [1], `CCCCn1c(=O)c2c(OC)c(OC)c(OC)cc2c2cc(C(O)(C(F)(F)F)C(F)(F)F)ccc21` [KZ39, 5-butyl-2-(1′,1′,1′,3′,3′,3′-hexafluoro-2′-hydroxypropan-2′-yl)-7,8,9-trimethoxy-phenanthridin-6(5H)-one] returned a CC50 of 2 µM. In data set [2], the pEC50 is under 5.70.

`CCCCn1c(=O)c2c(OC)cccc2c2cc(C(O)(C(F)(F)F)C(F)(F)F)ccc21` [KZ31, 5-butyl-2-(1′,1′,1′,3′,3′,3′-hexafluoro-2′-hydroxypropan-2′-yl)-7-methoxy-phenanthridin-6(5H)-one] gave a CC50 in data set [1] of 12.6 µM. Besides, in data set [2], the pEC50 was 5.00.

`CCCCn1c(=O)c2ccccc2c2cc(C(O)(C(F)(F)F)C(F)(F)F)c3c(c21)OCO3` [HA-718, 4-butyl-1′-(1′,1′,1′,3′,3′,3′-hexafluoro-2′-hydroxypropan-2′-yl)-[1,3]dioxolo[4,5-c]phenanthridin-5(4H)-one] returned a CC50 in data set [1] of 24.2 µM. Further, in data set [2], the pEC50 was 6.54.

The compound `CCCCn1c(=O)c2ccccc2c2cc(C(O)(C(F)(F)F)C(F)(F)F)c(OC)c(OC)c21` [HA-726, 5-butyl-2-(1′,1′,1′,3′,3′,3′-hexafluoro-2′-hydroxypropan-2′-yl)-3,4-dimethoxy-phenanthridin-6(5H)-one] displayed a CC50 in data set [1] of 10.4 µM. Also, the pEC50 in data set [2] is 5.59.

In the case of `CCCCn1c(=O)c2ccc(OC)cc2c2cc(C(O)(C(F)(F)F)C(F)(F)F)ccc21` [KZ32, 5-butyl-2-(1′,1′,1′,3′,3′,3′-hexafluoro-2′-hydroxypropan-2′-yl)-9-methoxy-phenanthridin-6(5H)-one], the CC50 in data set [1] was found to be 28.9 µM. In addition, the pEC50 in data set [2] was 4.78.

In turn, `CCCCn1c(=O)c2cc(OC)ccc2c2c(OC)c(C(OC)(C(F)(F)F)C(F)(F)F)cc(OC)c21` [KZ30, 5-butyl-2-(1′,1′,1′,3′,3′,3′-hexafluoro-2′-methoxypropan-2′-yl)-1,4,8-trimethoxy-phenanthridin-6(5H)-one] came in with a CC50 in data set [1] of over 100 µM. For the same compound, in data set [2], the pEC50 is 5.04 and the “anti-HCV activity (in words)” value was “high degree of anti-HCV activity at non-cytotoxic concentrations”.

As to `CCCCn1c(=O)c2cc(OC)ccc2c2cc(C(O)(C(F)(F)F)C(F)(F)F)c(OC)c(OC)c21` [HA-727, 5-butyl-2-(1′,1′,1′,3′,3′,3′-hexafluoro-2′-hydroxypropan-2′-yl)-3,4,8-trimethoxy-phenanthridin-6(5H)-one], the CC50 in data set [1] came to 6.8 µM. Moreover, the pEC50 in data set [2] was 5.74.

By CC50 is commonly meant the concentration giving 50% cytotoxicity. A higher CC50 goes with better tolerance by the cells. What is called pEC50 is the EC50 on a negative log10 scale, so that one unit is a factor of ten.
